{"source": "patent US8309110B2", "about": "“Biocide composition and sterilization method using the same” (priority 1998, dated 2012)", "tested_on": "mixed solution of 8 types of bacteria", "experiment": "MIC and synergistic index on a mixed solution of 8 types of bacteria, two fold dilution method", "format": "cell-based", "conditions": "72 h; 30 degrees centigrade, 3 days, Tryptic Soy Broth; read-out: Qa: MIC value on the mixed strain of a single 3-isothiazolone", "protocol": "The sterilizing effects of 3-isothiazolone and polyhexamethyleneguanidine phosphate on a mixed solution of 8 types of bacteria (Enterobacter aerogens ATCC 13048, Escherichia coli ATCC 11229, Micrococcus luteus ATCC 9341, Pseudomonas aeruginosa ATCC 15442, Klebsiella pneumoniae, Staphylococcus epidermis ATCC 155, Staphylococcus aureus ATCC 6538, and Bacillus subtilis ATCC 6984) were tested using Tryptic Soy Broth manufactured by Difco Corporation according to the two fold dilution method. The minimum inhibiting concentration of each biocide and mixtures thereof were determined by observation with the naked eye of the degree of muddiness of the lowest concentration in which growth was deteriorated after culturing a culture fluid in which biocides and microorganisms are added at 30 degrees centigrade for 3 days.", "data": [{"smiles": "O=c1ccs[nH]1", "note": "[3-isothiazolone]", "values": [{"measurement": "MIC", "value": 18.8, "unit": "µg/mL"}]}]}
